From ChEMBL document CHEMBL1135238, “Antibody-catalyzed cleavage of the D-Ala-D-Lac depsipeptide: an immunological approach to the problem of vancomycin resistance” (Bioorg Med Chem Lett, 2002)
pKi: −log10 of the molar value. Square brackets hold non-standard residues; d marks the D form. Peptide text beside a SMILES is read from it.

How the values were obtained:
[1] = Kcat value was determined
[2] = inhibitory activity of compound using pentapeptide cell-wall peptidoglycan (PG) substrates
[3] = Ratio of Kcat to Km was determined
[4] = Ratio of Kcat to Kuncat was determined
[5] = Km value was determined

## CC(=O)NCCCC[C@H](NC(=O)CCNC(=O)CCCC(=O)ON1C(=O)CCC1=O)C(=O)N[C@H](C)P(=O)(O)O[C@H](C)C(=O)O
[1]
  k cat: 3.33e-05 s⁻¹
[2]
  pKi: > 3.80
[3]
  Ratio: 0.921
[4]
  Ratio: 530
[5]
  Km: 2170 µM

## CC(=O)NCCCC[C@H](NC(C)=O)C(=O)N[C@H](C)C(=O)N[C@H](C)C(=O)O (Ac-Lys(Ac)-[dA]-[dA]-OH)
[2]
  pKi: 1.89
